The source of these data is patent publication US20250368625A1, “PIPERAZINES” (Grünenthal GmbH, priority 2024, published 2025).

What is called EC50 is the concentration that produces a half-maximal response.

Each structure is given as a SMILES string. A value given as a limit tells only on which side of the number the result lay.

T1 sequence (P31391 whole entry): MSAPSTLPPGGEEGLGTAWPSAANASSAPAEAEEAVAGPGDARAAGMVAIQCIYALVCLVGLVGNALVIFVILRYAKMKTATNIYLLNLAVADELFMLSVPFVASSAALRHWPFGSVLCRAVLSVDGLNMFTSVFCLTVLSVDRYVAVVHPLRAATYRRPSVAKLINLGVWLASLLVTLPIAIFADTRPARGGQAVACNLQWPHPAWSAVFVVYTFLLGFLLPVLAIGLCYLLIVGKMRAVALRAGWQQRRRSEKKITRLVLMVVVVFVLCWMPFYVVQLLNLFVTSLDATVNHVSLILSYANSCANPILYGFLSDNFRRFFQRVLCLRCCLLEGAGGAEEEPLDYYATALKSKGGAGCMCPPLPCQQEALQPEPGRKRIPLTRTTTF

This assay concerns the target T1, human SSTR4 (Homo sapiens, UniProt P31391).
T1 construct: expressed in transfected cells; host or cells: CHO-K1
Put plainly: hSSTR4 cAMP assay (cAMP accumulation, LANCE Ultra cAMP kit, CHO-K1 human SSTR4 Gi cell line). In kind it is cell-based. The conditions noted are these: functional agonism, forskolin 10 μM stimulated CHO-K1 human SSTR4 Gi cells, 30 min at 25° C., at least duplicate, averaged; read-out: hSSTR4 EC50. The protocol: cAMP accumulation assay using a CHO-K1 human SSTR4 Gi cell line.
Quantification of intracellular cAMP was performed using the LANCE Ultra cAMP assay kit from Revvity according to the manufacturer's instructions. CHO-K1 human SSTR4 Gi cell were either seeded in a density of 3K cells per well into a 384 well plate and incubated at 37° C. and 5% CO2 for 18-20 h or a stock of frozen cells were defrosted and seeded in a density of 5K cells per well without any further cultivation directly prior to the assay in a total volume of 5 μL in stimulation buffer. For pre-cultured cells, medium was replaced with 5 μL stimulation buffer before the assay. Cells were then stimulated with forskolin (final concentration 10 μM) and test compound (SSTR4 agonist) in increasing concentrations in duplicates for 30 min at 25° C. After stimulation, cells were lysed by addition of 10 μL of detection buffer (provided with the kit) and cell lysates were further diluted to ensure final cAMP concentrations fitted well into the dynamic range of the test kit. 10 μL of the diluted lysates were then added to respective wells of an OptiPlate-384 microplate. Thereafter, 5 μL of 4× Eu-cAMP tracer working solution was added, followed by addition of 5 μL of ULight-anti-cAMP working solution. The plate was then incubated for 1 h at 25° C. before reading on a TR-FRET microplate instrument. Data were normalized to cAMP high (forskolin only) and low control (forskolin+100 nM SST14) before fitting to a 4-Paramter logistic function.
All data was generated according to the cAMP assay conditions described above in at least duplicate and results are averaged and rounded to two significant figures.
In general terms: Cyclic AMP is a second messenger, typically raised through Gs and lowered through Gi signalling.
In the case of `CCN1CCN[C@H](C(=O)NC(C)(C)c2ncc3c(C)cccn23)C1` [SC-054, (S)-4-ethyl-N-(2-(8-methylimidazo[1,5-a]pyridin-3-yl)propan-2-yl)piperazine-2-carboxamide], the EC50 stood at 17 nM. For `Cc1cccn2c(C(C)(C)NC(=O)[C@@H]3CN(C4CCC(F)(F)CC4)CCN3)ncc12` [SC-055, (S)-4-(4,4-difluorocyclohexyl)-N-(2-(8-methylimidazo[1,5-a]pyridin-3-yl)propan-2-yl)piperazine-2-carboxamide], the concentration for a half-maximal effect (EC50) is 8400 nM. On to `Cc1cccn2c(C(C)(C)NC(=O)[C@@H]3CN(C4CCOCC4)CCN3)ncc12` [SC-056, (S)-N-(2-(8-methylimidazo[1,5-a]pyridin-3-yl)propan-2-yl)-4-(tetrahydro-2H-pyran-4-yl)piperazine-2-carboxamide], for which the EC50 was determined as 3000 nM.

`Cc1cccn2c(C(C)(C)NC(=O)[C@@H]3CN(CC4CCOCC4)CCN3)ncc12` [SC-057, (S)-N-(2-(8-methylimidazo[1,5-a]pyridin-3-yl)propan-2-yl)-4-((tetrahydro-2H-pyran-4-yl)methyl)piperazine-2-carboxamide]: the EC50 was determined as 20 nM. Regarding `Cc1cccn2c(C(C)(C)NC(=O)[C@@H]3CN(Cc4ccccc4)CCN3)ncc12` [SC-058, (S)-4-benzyl-N-(2-(8-methylimidazo[1,5-a]pyridin-3-yl)propan-2-yl)piperazine-2-carboxamide], the EC50 came to 1700 nM. For `Cc1cccn2c(C(C)(C)NC(=O)[C@@H]3CN(Cc4ccncc4)CCN3)ncc12` [SC-059, (S)-N-(2-(8-methylimidazo[1,5-a]pyridin-3-yl)propan-2-yl)-4-(pyridin-4-ylmethyl)piperazine-2-carboxamide], the concentration for a half-maximal effect (EC50) is 130 nM. `Cc1cccn2c(C(C)(C)NC(=O)[C@@H]3CN(Cc4ccccn4)CCN3)ncc12` [SC-060, (S)-N-(2-(8-methylimidazo[1,5-a]pyridin-3-yl)propan-2-yl)-4-(pyridin-2-ylmethyl)piperazine-2-carboxamide]: the EC50 was found to be 1500 nM.

On to `Cc1cccn2c(C(C)(C)NC(=O)[C@@H]3CN(Cc4cccnc4)CCN3)ncc12` [SC-061, (S)-N-(2-(8-methylimidazo[1,5-a]pyridin-3-yl)propan-2-yl)-4-(pyridin-3-ylmethyl)piperazine-2-carboxamide], for which the concentration giving a half-maximal response (EC50) is 1700 nM.

With `Cc1cccn2c(C(C)(C)NC(=O)[C@@H]3CN(Cc4cnco4)CCN3)ncc12` [SC-062, (S)-N-(2-(8-methylimidazo[1,5-a]pyridin-3-yl)propan-2-yl)-4-(oxazol-5-ylmethyl)piperazine-2-carboxamide], the EC50 came out at 220 nM. `Cc1cccn2c(C(C)(C)NC(=O)[C@@H]3CN(Cc4cocn4)CCN3)ncc12` [SC-063, (S)-N-(2-(8-methylimidazo[1,5-a]pyridin-3-yl)propan-2-yl)-4-(oxazol-4-ylmethyl)piperazine-2-carboxamide]: the half-maximal effective concentration (EC50) is 930 nM. The figure for `Cc1cccn2c(C(C)(C)NC(=O)[C@@H]3CN(Cc4cc(C(F)(F)F)nn4C)CCN3)ncc12` [SC-064, (S)-4-((1-methyl-3-(trifluoromethyl)-1H-pyrazol-5-yl)methyl)-N-(2-(8-methylimidazo[1,5-a]pyridin-3-yl)propan-2-yl)piperazine-2-carboxamide] is 13000 nM; for `Cc1cccn2c(C(C)(C)NC(=O)[C@@H]3CN(Cc4ncco4)CCN3)ncc12` [SC-065, (S)-N-(2-(8-methylimidazo[1,5-a]pyridin-3-yl)propan-2-yl)-4-(oxazol-2-ylmethyl)piperazine-2-carboxamide] it is 1300 nM; for `Cc1cccn2c(C(C)(C)NC(=O)[C@@H]3CN(Cc4ccn(C)n4)CCN3)ncc12` [SC-066, (S)-4-((1-methyl-1H-pyrazol-3-yl)methyl)-N-(2-(8-methylimidazo[1,5-a]pyridin-3-yl)propan-2-yl)piperazine-2-carboxamide] it is 1600 nM. `Cc1cccn2c(C(C)(C)NC(=O)[C@@H]3CN(CC4CCC(F)(F)CC4)CCN3)ncc12` [SC-067, (S)-4-((4,4-difluorocyclohexyl)methyl)-N-(2-(8-methylimidazo[1,5-a]pyridin-3-yl)propan-2-yl)piperazine-2-carboxamide]: the half-maximal effective concentration (EC50) is 2400 nM. Turning to `Cc1cccn2c(C(C)(C)NC(=O)[C@@H]3CN(CC4CCC4)CCN3)ncc12` [SC-068, (S)-4-(cyclobutylmethyl)-N-(2-(8-methylimidazo[1,5-a]pyridin-3-yl)propan-2-yl)piperazine-2-carboxamide], the EC50 worked out at 590 nM.

In the case of `Cc1cccn2c(C(C)(C)NC(=O)[C@@H]3CN(CC(C)C)CCN3)ncc12` [SC-069, (S)-4-isobutyl-N-(2-(8-methylimidazo[1,5-a]pyridin-3-yl)propan-2-yl)piperazine-2-carboxamide], the half-maximal effective concentration (EC50) was determined as 300 nM. Take `CCCN1CCN[C@H](C(=O)NC(C)(C)c2ncc3c(C)cccn23)C1` [SC-070, (S)-N-(2-(8-methylimidazo[1,5-a]pyridin-3-yl)propan-2-yl)-4-propylpiperazine-2-carboxamide]: the concentration giving a half-maximal response (EC50) worked out at 82 nM. With `Cc1cccn2c(C(C)(C)NC(=O)[C@@H]3CN(Cc4cnn(C)c4)CCN3)ncc12` [SC-071, (S)-4-((1-methyl-1H-pyrazol-4-yl)methyl)-N-(2-(8-methylimidazo[1,5-a]pyridin-3-yl)propan-2-yl)piperazine-2-carboxamide] the figure was 540 nM.

`Cc1cccn2c(C(C)(C)NC(=O)[C@@H]3CN(Cc4ccnn4C)CCN3)ncc12` [SC-072, (S)-4-((1-methyl-1H-pyrazol-5-yl)methyl)-N-(2-(8-methylimidazo[1,5-a]pyridin-3-yl)propan-2-yl)piperazine-2-carboxamide]: the EC50 was found to be 1200 nM. `Cc1cccn2c(C(C)(C)NC(=O)[C@@H]3CN(Cc4ccn(C(C)C)n4)CCN3)ncc12` [SC-073, (S)-4-((1-isopropyl-1H-pyrazol-3-yl)methyl)-N-(2-(8-methylimidazo[1,5-a]pyridin-3-yl)propan-2-yl)piperazine-2-carboxamide]: the concentration giving a half-maximal response (EC50) is 4800 nM.

In the case of `Cc1cccn2c(C(C)(C)NC(=O)[C@@H]3CN(Cc4cnn(C(C)C)c4)CCN3)ncc12` [SC-074, (S)-4-((1-isopropyl-1H-pyrazol-4-yl)methyl)-N-(2-(8-methylimidazo[1,5-a]pyridin-3-yl)propan-2-yl)piperazine-2-carboxamide], the EC50 worked out at 2600 nM. As for `Cc1cccn2c(C(C)(C)NC(=O)[C@@H]3CN(C4COC4)CCN3)ncc12` [SC-075, (S)-N-(2-(8-methylimidazo[1,5-a]pyridin-3-yl)propan-2-yl)-4-(oxetan-3-yl)piperazine-2-carboxamide], the 50% effective concentration (EC50) stood at 620 nM. The figure for `Cc1cccn2c(C(C)(C)NC(=O)[C@@H]3CN(CC4COC4)CCN3)ncc12` [SC-076, (S)-N-(2-(8-methylimidazo[1,5-a]pyridin-3-yl)propan-2-yl)-4-(oxetan-3-ylmethyl)piperazine-2-carboxamide] is 620 nM; for `Cc1cccn2c(C(C)(C)NC(=O)[C@@H]3CN(C(=O)C4CC4)CCN3)ncc12` [SC-077, (S)-4-(cyclopropanecarbonyl)-N-(2-(8-methylimidazo[1,5-a]pyridin-3-yl)propan-2-yl)piperazine-2-carboxamide] it is > 1000 nM; for `Cc1cccn2c(C(C)(C)NC(=O)[C@@H]3CN(C(=O)C4CCOCC4)CCN3)ncc12` [SC-078, (S)-N-(2-(8-methylimidazo[1,5-a]pyridin-3-yl)propan-2-yl)-4-(tetrahydro-2H-pyran-4-carbonyl)piperazine-2-carboxamide] it is 6500 nM.
